The test system of this assay is Primary human T-cells. Put plainly: Primary Human T-Cell Proliferation Assay Stimulated with IL-2 (CellTiter-Glo). The class given is cell-based. To be noted: primary human T-cell proliferation stimulated with IL-2; read-out: IC50, Example 42. Put shortly:
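IC50 derived from CellTiter-Glo ATP signal after 72 hours of IL-2-driven proliferation at 37° C. Cells: primary human T-cells from blood, stimulated beforehand 3-4 days on anti-CD3/anti-CD28 with IL-2, then rested from IL-2 before compound exposure in duplicate; IL-2-free wells served as unstimulated control.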

pIC50: −log10 of the molar value.

`Cc1ccc(Nc2ncc(F)c(Nc3cccc(OC4CCCN(C)C4)c3)n2)cc1S(N)(=O)=O` (racemic) [II-1, Racemic N2-(3-aminosulfonyl-4-methylphenyl)-5-fluoro-N4-{3-[(1-methylpiperidin-3-yl)oxy]phenyl}-2,4-pyrimidinediamine]: the negative logarithm of the IC50 (pIC50) was 5.94.

On to `Cc1ccc(Nc2ncc(F)c(Nc3ccc(OC4CCCN(C)C4)cc3)n2)cc1S(N)(=O)=O` (racemic) [II-4, Racemic N2-(3-aminosulfonyl-4-methylphenyl)-5-fluoro-N4-{4-[(1-methylpiperidin-3-yl)oxy]phenyl}-2,4-pyrimidinediamine], for which the pIC50 was 5.63.

For `Cc1cc(Nc2nc(Nc3cccc(S(N)(=O)=O)c3)ncc2F)ccc1OCC#N` [Compound I-23, N2-(3-Aminosulfonyl)phenyl-N4-(4-cyanomethoxy-3-methyl)phenyl-5-fluoro-2,4-pyrimidinediamine], the negative-log IC50 (pIC50) is 7.05.

For `Cc1cc(Nc2nc(Nc3ccc(C)c(S(N)(=O)=O)c3)ncc2F)ccc1OCC#N` [Compound I-24, N2-(3-Aminosulfonyl-4-methyl)phenyl-N4-(4-cyanomethoxy-3-methyl)phenyl-5-fluoro-2,4-pyrimidinediamine], the negative logarithm of the IC50 (pIC50) was 6.53.

With `COc1cc(Nc2ncc(F)c(Nc3ccc(OCC#N)cc3)n2)ccc1S(N)(=O)=O` [Compound I-28, N2-(4-Aminosulfonyl-3-methoxyphenyl)-N4-(4-cyanomethoxy)phenyl-5-fluoro-2,4-pyrimidinediamine], the pIC50 was 6.25.

`N#CCOc1ccc(Nc2nc(Nc3ccc(F)c(S(N)(=O)=O)c3)ncc2F)cc1` [Compound I-33, N2-(3-Aminosulfonyl-4-fluoro)phenyl-N4-(4-cyanomethoxy)phenyl-5-fluoro-2,4-pyrimidinediamine]: the pIC50 was 6.77.

Take `Cc1cc(COc2ccc(Nc3nc(Nc4cc(Cl)c(C)c(S(N)(=O)=O)c4)ncc3F)cc2C)no1` [Compound I-216, N2-(3-Aminosulfonyl-5-chloro-4-methylphenyl)-5-fluoro-N4-[3-methyl-4-(5-methylisoxazol-3-yl)methyleneoxyphenyl]-2,4-pyrimidinediamine]: the pIC50 is 6.31.

As for `Cc1cc(COc2ccc(Nc3nc(Nc4ccc(C)c(S(N)(=O)=O)c4)ncc3F)cc2Cl)no1` [Compound I-221, N2-(3-Aminosulfonyl-4-methylphenyl)-N4-[3-chloro-4-(5-methylisoxazol-3-yl)methyleneoxyphenyl]-5-fluoro-2,4-pyrimidinediamine], the pIC50 is 5.57.

Regarding `Cc1cc(COc2ccc(Nc3nc(Nc4ccc(C)c(S(N)(=O)=O)c4)ncc3F)cc2F)no1` [Compound I-222, N2-(3-Aminosulfonyl-4-methylphenyl)-5-fluoro-N4-[3-fluoro-4-(5-methylisoxazol-3-yl)methyleneoxyphenyl]-2,4-pyrimidinediamine], the negative logarithm of the IC50 (pIC50) is 6.23.

For the molecule `Cc1noc(COc2ccc(Nc3nc(Nc4ccc(S(N)(=O)=O)cc4)ncc3F)cc2)n1` [Compound I-231, N2-(4-Aminosulfonylphenyl)-5-fluoro-N4-[4-(3-methyl-1,2,4-oxadiazol-5-yl)methyleneoxyphenyl]-2,4-pyrimidinediamine], the pIC50 was 6.54.

Turning to `Cc1cc(COc2ccc(Nc3nc(Nc4ccc(F)c(S(N)(=O)=O)c4)ncc3F)cc2)no1` [Compound I-233, N2-(3-Aminosulfonyl-4-fluorophenyl)-5-fluoro-N4-[4-(5-methylisoxazol-3-yl)methyleneoxyphenyl]-2,4-pyrimidinediamine], the pIC50 was 6.42.

Turning to `CNS(=O)(=O)c1cc(Nc2ncc(F)c(Nc3ccc(OCc4cc(C)on4)cc3)n2)ccc1C` [Compound I-235, 5-Fluoro-N2-[3-(N-methyl)aminosulfonyl-4-methylphenyl]-N4-[4-(5-methylisoxazol-3-yl)methyleneoxyphenyl]-2,4-pyrimidinediamine], the pIC50 is 6.33.
